Experimental data as given in patent publication US6903096B2, “Quinazoline derivatives as medicaments” (Scios, Inc., priority 1998, dated 2005).

Assays:
p38-γ = molecular target: T1, p38-γ (Homo sapiens, UniProt P53778); experiment: Kinase specificity: p38-γ; type: biochemical; conditions: tested at 50 μM; approximate IC50(app)=A×i/(1−A)
T1 sequence (P53778 1-367): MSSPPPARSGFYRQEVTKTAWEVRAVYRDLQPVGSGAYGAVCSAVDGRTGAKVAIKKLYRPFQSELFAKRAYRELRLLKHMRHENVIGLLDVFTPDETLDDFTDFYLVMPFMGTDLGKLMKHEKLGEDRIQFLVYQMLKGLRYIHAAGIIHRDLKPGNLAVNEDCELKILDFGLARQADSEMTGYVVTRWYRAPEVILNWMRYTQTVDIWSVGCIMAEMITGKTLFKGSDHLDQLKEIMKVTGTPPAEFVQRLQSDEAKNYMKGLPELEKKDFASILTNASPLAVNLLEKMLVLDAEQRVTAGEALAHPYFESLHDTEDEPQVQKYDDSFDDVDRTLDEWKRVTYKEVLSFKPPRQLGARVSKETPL
Description: (§1) IC50 values were determined with curve-fitting plots available with common softeware packages. Approximate IC50 values were calculated using formula IC50(app)=A×i/(1−A) where A=fractional activity and i=total inhibitor concentration.
(§2) Compounds 5 and 7 were tested for their specificity for p38 by assessing their ability to inhibit other kinases. These compounds were tested at 50 μM and were soluble at 250 μM in 5% DMSO/95% water.

JNK1 = JNK1 (Homo sapiens, UniProt P45983); experiment: Kinase specificity: JNK1; type: biochemical; conditions: tested at 50 μM; approximate IC50(app)=A×i/(1−A)
Sequence of JNK1 (P45983 whole entry, species assumed): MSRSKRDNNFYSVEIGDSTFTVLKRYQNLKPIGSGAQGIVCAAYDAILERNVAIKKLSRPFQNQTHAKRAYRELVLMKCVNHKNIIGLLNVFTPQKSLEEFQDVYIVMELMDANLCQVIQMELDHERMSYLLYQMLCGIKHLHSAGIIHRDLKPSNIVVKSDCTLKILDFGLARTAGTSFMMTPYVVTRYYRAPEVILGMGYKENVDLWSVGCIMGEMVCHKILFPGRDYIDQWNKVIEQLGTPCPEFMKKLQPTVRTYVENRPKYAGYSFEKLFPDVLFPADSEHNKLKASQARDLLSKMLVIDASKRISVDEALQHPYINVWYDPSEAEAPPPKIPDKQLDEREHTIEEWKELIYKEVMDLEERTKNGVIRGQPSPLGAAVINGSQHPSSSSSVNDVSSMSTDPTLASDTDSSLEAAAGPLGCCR
Description: as §1, §2

PKA = PKA (Homo sapiens, UniProt P17612); experiment: Kinase specificity: PKA; type: biochemical; conditions: tested at 50 μM; approximate IC50(app)=A×i/(1−A)
Description: as §1, §2

PKC = experiment: Kinase specificity: PKC; type: biochemical; conditions: tested at 50 μM; approximate IC50(app)=A×i/(1−A)
Description: as §1, §2

DNA-dep PK (PKD) = DNA-dep PK (PKD) (Homo sapiens, UniProt P78527); experiment: Kinase specificity: DNA-dep PK; type: biochemical; conditions: tested at 50 μM; approximate IC50(app)=A×i/(1−A)
Description: as §1, §2

cck2 = experiment: Kinase specificity: cck2; type: biochemical; conditions: tested at 50 μM; approximate IC50(app)=A×i/(1−A)
Description: as §1, §2

EGF-R = EGF-R (Homo sapiens, UniProt P00533); experiment: Kinase specificity: EGF-R; type: biochemical; conditions: tested at 50 μM; approximate IC50(app)=A×i/(1−A)
Sequence of EGF-R (P00533 25-1210, species assumed): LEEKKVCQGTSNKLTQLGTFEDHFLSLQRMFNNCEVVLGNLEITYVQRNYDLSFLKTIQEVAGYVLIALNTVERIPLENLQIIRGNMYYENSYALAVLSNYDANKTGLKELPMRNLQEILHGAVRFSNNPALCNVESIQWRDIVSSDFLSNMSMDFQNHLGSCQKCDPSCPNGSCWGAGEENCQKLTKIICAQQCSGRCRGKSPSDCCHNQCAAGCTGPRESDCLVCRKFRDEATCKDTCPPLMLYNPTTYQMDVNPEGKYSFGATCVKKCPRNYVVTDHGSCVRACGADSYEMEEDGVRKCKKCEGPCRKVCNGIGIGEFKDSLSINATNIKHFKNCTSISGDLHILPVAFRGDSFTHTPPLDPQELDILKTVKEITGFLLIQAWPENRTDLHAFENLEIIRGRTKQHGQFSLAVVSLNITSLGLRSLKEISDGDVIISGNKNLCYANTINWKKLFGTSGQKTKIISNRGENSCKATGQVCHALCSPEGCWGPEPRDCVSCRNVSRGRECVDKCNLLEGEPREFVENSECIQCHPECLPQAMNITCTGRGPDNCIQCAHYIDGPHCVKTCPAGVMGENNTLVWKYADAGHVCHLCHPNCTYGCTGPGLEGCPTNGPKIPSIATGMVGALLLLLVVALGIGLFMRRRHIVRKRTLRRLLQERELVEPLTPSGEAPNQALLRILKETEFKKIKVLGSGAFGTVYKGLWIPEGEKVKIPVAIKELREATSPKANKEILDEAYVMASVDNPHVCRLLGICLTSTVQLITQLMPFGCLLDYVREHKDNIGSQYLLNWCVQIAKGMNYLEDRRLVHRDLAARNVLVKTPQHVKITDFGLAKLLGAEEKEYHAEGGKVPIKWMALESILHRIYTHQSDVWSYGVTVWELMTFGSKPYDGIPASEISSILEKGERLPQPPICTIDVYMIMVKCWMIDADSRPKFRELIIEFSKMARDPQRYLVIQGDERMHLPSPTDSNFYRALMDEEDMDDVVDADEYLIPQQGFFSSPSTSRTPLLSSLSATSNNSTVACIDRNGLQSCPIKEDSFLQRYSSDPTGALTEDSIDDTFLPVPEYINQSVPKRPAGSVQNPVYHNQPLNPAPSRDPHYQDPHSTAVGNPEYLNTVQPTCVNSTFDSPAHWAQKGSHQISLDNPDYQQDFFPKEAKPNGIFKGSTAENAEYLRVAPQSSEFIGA
Description: as §1, §2

p38-β = p38-β (Homo sapiens, UniProt Q15759); experiment: p38-β inhibition; type: biochemical; conditions: curve fitted
Sequence of p38-β (Q15759 whole entry): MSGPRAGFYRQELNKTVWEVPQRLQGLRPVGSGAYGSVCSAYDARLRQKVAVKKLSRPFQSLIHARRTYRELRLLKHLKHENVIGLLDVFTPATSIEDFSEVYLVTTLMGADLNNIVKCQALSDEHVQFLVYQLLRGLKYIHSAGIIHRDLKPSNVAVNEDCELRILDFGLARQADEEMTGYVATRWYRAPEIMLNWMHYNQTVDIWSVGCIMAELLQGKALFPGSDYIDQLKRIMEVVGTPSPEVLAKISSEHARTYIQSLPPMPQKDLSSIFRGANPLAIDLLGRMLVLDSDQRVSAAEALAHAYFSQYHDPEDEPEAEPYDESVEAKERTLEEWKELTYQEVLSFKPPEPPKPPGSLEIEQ
Description: as §1

[1] = Solubility in 5% DMSO/95% water; type: physicochemical; conditions: aqueous with cosolvent or surfactant or cyclodextrin, read-out: soluble at
Description: as §2

Row | IC50 (p38-γ) [µM] | IC50 (JNK1) [µM] | IC50 (PKA) [µM] | IC50 (PKC) [µM] | IC50 (DNA-dep PK (PKD)) [µM] | IC50 (cck2) [µM] | IC50 (EGF-R) [µM] | IC50 (p38-β) [µM] | solubility [1] [µM] | Compound
1 | > 300 | > 300 | 310 | > 500 | 240 | > 500 | 34 | 3.65 | ≥ 250 | c1ccc(-c2nc(Nc3ccncc3)c3ccccc3n2)cc1 [Compound 7, 2-phenyl-4-(4-pyridylamino)-quinazoline]
2 | 227 | 167 | > 250 | > 100 | 120 | 245 | 4.2 | 0.928 | ≥ 250 | Fc1ccccc1-c1nc(Nc2ccncc2)c2ccccc2n1 [Compound 5, 2-(2-fluorophenyl)-4-(4-pyridylamino)-quinazoline]
